Source: US12551463B2, “Dosing of a Bruton's tyrosine kinase inhibitor” (Loxo Oncology, Inc., priority 2019, dated 2026)
“Also recorded” adds a separate entry of the source. Where two headings read alike, the source gives them in different places. Marks after values point to notes of the source that are not given here.

How the values were obtained:
[1] = Human clinical trials of BTK-I: adverse events in the overall safety population of 323 patients; assay type: in vivo
Experimental: (Mato A., et al., “Toxicities and Outcomes of 616 Ibrutinib-Treated Patients in the United States: A Real-World Analysis”, Haematologica, 2018, 103(5), 874-879.) Between Mar. 21, 2019 and Sep. 27, 2020, across 7 dose levels ranging from 25 mg once daily (QD) to 300 mg QD in 323 patients, the only treatment-emergent adverse events regardless of attribution or grade seen in ≥10% of patients (n=323) were fatigue (n=65, 20%), diarrhea (n=55, 17%), and contusion (n=42, 13%). In 121 efficacy-evaluable cBTKi-treated chronic lymphocytic leukemia (CLL) patients (median prior lines=4), overall response rate (ORR) was 62% (95% CI: 53-71), rising to 84% in patients followed for ≥10 months.
Atrial arrythmias and hemorrhage are two important AEs associated with covalent BTK inhibitor discontinuation. […] Only 1 patient experienced a grade 3 hemorrhage, a subarachnoid bleed sustained during a bicycle accident. In total, 18 patients had discontinued a prior BTK inhibitor for cardiovascular toxicity (in 15) or hemorrhage (3). None experienced recurrence of these events on BTK-I.

[2] = Phase 1/2 clinical study: pharmacokinetics in cancer patients; assay type: in vivo, human; details: for half-life: read-out: T1/2 Geo mean (% CV) (converted)
Text: The study is an open-label, multi-center study of oral BTK-I to evaluate safety and efficacy as monotherapy and as part of combination therapy in patients with CLL/SLL and NHL who have failed or are intolerant to standard of care. This study includes monotherapy as well as combination treatment parts. The monotherapy part includes Phase 1 dose escalation and dose expansion as well as Phase 2. The combination therapy part is a Phase 1b (safety assessment and expansion) of BTK-I in combination with venetoclax, with or without anti-CD20 therapy. Phase 1 dose escalation will proceed prior to start of Phase 1b or Phase 2. Once a recommended Phase 2 dose (RP2D) is identified in Phase 1, enrollment can commence to the Phase 1b combination therapies and Phase 2 monotherapy cohorts.
BTK-I is administered in oral tablet form. Dose escalation will follow a 3+3 design starting with a 25 mg QD dose (followed by 50 mg QD (dose level cohort 2), 100 mg QD (dose level cohort 3), 150 mg QD (dose level cohort 4), 200 mg QD (dose level cohort 5), 250 mg QD (dose level cohort 6), and 300 mg QD (dose level cohort 7)). Cycle length will be 28 days. The drug limiting toxicity (DLT) period will be 28 days, commencing with the first dose of BTK-I.
The pharmacokinetic profiles and adverse events for BTK-I doses are summarized in the below tables.
Pharmacokinetic Parameters of BTK-I—in Cancer Patients at Steady State (Cycle 1 Day 8)

[3] = 25 mg QD to 300 mg QD, n=323, regardless of attribution or grade

With `COc1ccc(F)cc1C(=O)NCc1ccc(-c2nn([C@@H](C)C(F)(F)F)c(N)c2C(N)=O)cc1` [BTK-I, (S)-5-amino-3-(4-((5-fluoro-2-methoxybenzamido)methyl)phenyl)-1-(1,1,1-trifluoropropane-2-yl)-1H-pyrazole-4-carboxamide] the “treatment-emergent adverse event contusion, patients” value [1, 3] was 13%, the “treatment-emergent adverse event diarrhea, patients” value [1, 3] was 17% and the “treatment-emergent adverse event fatigue, patients” value [1, 3] was 20%. The “recurrence of cardiovascular toxicity or hemorrhage on BTK-I” value ([1]; 18 patients who had discontinued a prior BTK inhibitor for cardiovascular toxicity (15) or hemorrhage (3)) was “None”, the “permanent discontinuations for drug-related adverse events, patients” value ([1]; n=323 (in 5)) was 1.5% and the “dose reductions for drug-related adverse events, patients” value ([1]; n=323 (in 7)) was 2.2%. The “dose interruptions for drug-related adverse events, patients” value ([1]; n=323 (in 26)) was 8.0%, the “atrial fibrillation/flutter, patients” value ([1]; overall safety population of 323 patients, 2 patients, both grade 2, considered unrelated) was 0.6% and the “grade 3 hemorrhage” value ([1]; overall safety population of 323 patients, subarachnoid bleed during a bicycle accident) was 1 patient. For the same compound, the “Ratio AUC0-8 Day 8/Day 1 Geo mean (% CV)” value ([2]; 25 mg QD (N = 5)) was 1.44 (23.0%), the “CL/F Geo mean (% CV)” value ([2]; 25 mg QD, steady state (Cycle 1 Day 8), N = 4, % CV 69.6%) was 1.55^a (69.6%) L/h and the “dose dependence of exposure (Cmax and AUC)” value ([2]; 25 mg to 300 mg daily) was “dose-5 dependent and linear increases in BTK-I exposure; also recorded: linear dose-proportional exposures”. The “interpatient variability of exposure” value ([2]; 25 mg to 300 mg daily) was “low interpatient variability”, the “Ratio AUC0-8 Day 8/Day 1 Geo mean (% CV)” value ([2]; 50 mg QD (N = 6)) was 1.51 (25.9%) and the “CL/F Geo mean (% CV)” value ([2]; 50 mg QD, steady state (Cycle 1 Day 8), N = 5, % CV 36.7%) was 2.62^b (36.7%) L/h. For the same compound, the “Ratio AUC0-8 Day 8/Day 1 Geo mean (% CV)” value ([2]; 100 mg QD (N = 9)) was 1.88 (42.8%), the “CL/F Geo mean (% CV)” value ([2]; 100 mg QD, steady state (Cycle 1 Day 8), N = 8, % CV 63.0%) was 0.968^c (63.0%) L/h and the “Ratio AUC0-8 Day 8/Day 1 Geo mean (% CV)” value ([2]; 150 mg QD (N = 20)) was 1.74 (24.9%). The “T1/2 Geo mean (% CV)” value ([2]; 150 mg QD, steady state (Cycle 1 Day 8), N = 18, % CV 51.8%) was 18.l^d (51.8%), the “CL/F Geo mean (% CV)” value ([2]; 150 mg QD, steady state (Cycle 1 Day 8), N = 18, % CV 66.7%) was 1.36^d (66.7%) L/h and the “trough steady-state exposure relative to BTK IC96” value ([2]; 200 mg QD) was “BTK IC96 target coverage”. For the same compound, the “Ratio AUC0-8 Day 8/Day 1 Geo mean (% CV)” value ([2]; 200 mg QD, N = 73, % CV 29.6%) was 1.69^h (29.6%)^, the “CL/F Geo mean (% CV)” value ([2]; 200 mg QD, steady state (Cycle 1 Day 8), N = 64, % CV 61.8%) was 1.14^e (61.8%) L/h and the “Ratio AUC0-8 Day 8/Day 1 Geo mean (% CV)” value ([2]; 250 mg QD (N = 25)) was 1.68 (24.5%). The “CL/F Geo mean (% CV)” value ([2]; 250 mg QD, steady state (Cycle 1 Day 8), N = 21, % CV 1.08%) was 1.26^f (1.08%) L/h, the “Cmax Geo mean (% CV)” value ([2]; 250 mg QD, steady state (Cycle 1 Day 8), N=25) was 8100 (28.1%) ng/mL and the “Ratio AUC0-8 Day 8/Day 1 Geo mean (% CV)” value ([2]; 300 mg QD, N=17) was 2.15 (31.2%). For the same compound, the “CL/F Geo mean (% CV)” value ([2]; 300 mg QD, steady state (Cycle 1 Day 8), N = 16, % CV 42.5%) was 1.63^g (42.5%) L/h, the AUC(0-t) ([2]; human, plasma, oral, 25 mg, 25 mg QD, steady state (Cycle 1 Day 8), N=5, read-out: AUC0-8 Geo mean (% CV)) was 4240 ng·h/mL and the AUC(0-t) ([2]; human, plasma, oral, 25 mg, 25 mg QD, steady state (Cycle 1 Day 8), N=5, read-out: AUC0-24 Geo mean (% CV)) was 9800 ng·h/mL. The AUC(0-t) ([2]; human, plasma, oral, 50 mg, 50 mg QD, steady state (Cycle 1 Day 8), N=6, read-out: AUC0-8 Geo mean (% CV)) was 8660 ng·h/mL, the AUC(0-t) ([2]; human, plasma, oral, 50 mg, 50 mg QD, steady state (Cycle 1 Day 8), N=6, read-out: AUC0-24 Geo mean (% CV)) was 20100 ng·h/mL and the AUC(0-t) ([2]; human, plasma, oral, 100 mg, 100 mg QD, steady state (Cycle 1 Day 8), N=9, read-out: AUC0-8 Geo mean (% CV)) was 22000 ng·h/mL. For the same compound, the AUC(0-t) ([2]; human, plasma, oral, 100 mg, 100 mg QD, steady state (Cycle 1 Day 8), N=9, read-out: AUC0-24 Geo mean (% CV)) was 52400 ng·h/mL, the AUC(0-t) ([2]; human, plasma, oral, 150 mg, 150 mg QD, steady state (Cycle 1 Day 8), N=20, read-out: AUC0-8 Geo mean (% CV)) was 28000 ng·h/mL and the AUC(0-t) ([2]; human, plasma, oral, 150 mg, 150 mg QD, steady state (Cycle 1 Day 8), N=20, read-out: AUC0-24 Geo mean (% CV)) was 64400 ng·h/mL. It also gave an AUC(0-t) ([2]; human, plasma, oral, 200 mg, 200 mg QD, steady state (Cycle 1 Day 8), N=99, read-out: AUC0-8 Geo mean (% CV)) of 36900 ng·h/mL, an AUC(0-t) ([2]; human, plasma, oral, 200 mg, 200 mg QD, steady state (Cycle 1 Day 8), N=99, read-out: AUC0-24 Geo mean (% CV)) of 91000 ng·h/mL and an AUC(0-t) ([2]; human, plasma, oral, 250 mg, 250 mg QD, steady state (Cycle 1 Day 8), N=25, read-out: AUC0-8 Geo mean (% CV)) of 49700 ng·h/mL. The AUC(0-t) ([2]; human, plasma, oral, 250 mg, 250 mg QD, steady state (Cycle 1 Day 8), N=25, read-out: AUC0-24 Geo mean (% CV)) was 111000 ng·h/mL, the AUC(0-t) ([2]; human, plasma, oral, 300 mg, 300 mg QD, steady state (Cycle 1 Day 8), N=17, read-out: AUC0-8 Geo mean (% CV)) was 65800 ng·h/mL and the AUC(0-t) ([2]; human, plasma, oral, 300 mg, 300 mg QD, steady state (Cycle 1 Day 8), N=17, read-out: AUC0-24 Geo mean (% CV)) was 158000 ng·h/mL. The half-life ([2]; human, plasma, oral, 25 mg QD, steady state (Cycle 1 Day 8), N = 4, % CV 60.1%) was 18.2 h, the Cmax ([2]; human, plasma, oral, 25 mg QD, steady state (Cycle 1 Day 8), N=5, read-out: Cmax Geo mean (% CV)) was 734 ng/mL and the Tmax ([2]; human, plasma, oral, 25 mg QD, steady state (Cycle 1 Day 8), N=5, read-out: Tmax Median (min, max)) was 2 h. The concentration at 0 h ([2]; human, plasma, oral, 25 mg, 0 hr, read-out: Mean patient plasma CONC (SD)) was 263 ng/mL, the concentration at 1 h ([2]; human, plasma, oral, 25 mg, 1 hr, read-out: Mean patient plasma CONC (SD)) was 572 ng/mL and the concentration at 2 h ([2]; human, plasma, oral, 25 mg, 2 hr, read-out: Mean patient plasma CONC (SD)) was 650 ng/mL. The concentration at 4 h ([2]; human, plasma, oral, 25 mg, 4 hr, read-out: Mean patient plasma CONC (SD)) was 538 ng/mL, the concentration at 8 h ([2]; human, plasma, oral, 25 mg, 8 hr, read-out: Mean patient plasma CONC (SD)) was 495 ng/mL and the concentration at 24 h ([2]; human, plasma, oral, 25 mg, 24 hr (not measured, inferred based on predose), read-out: Mean patient plasma CONC (SD)) was 263 ng/mL. It also gave a half-life ([2]; human, plasma, oral, 50 mg QD, steady state (Cycle 1 Day 8), N = 5, % CV 39.6%) of 17.6 h.
